According to PubChem BioAssay AID256 (DTP/NCI, 2004):
Where “and” joins values, the source holds several entries; their conditions need not be identical. Equal values may be shown once. Toxic doses and inconclusive results are not listed.

Tested on: CD2F1 mice, L1210 leukemia ip, survival T/C
Assay: NCI In Vivo Anticancer Drug Screen. Data for tumor model L1210 Leukemia (intraperitoneal) in CD2F1 (CDF1) mice
Conditions: higher = longer survival
In short: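 Vehicle-treated tumor-bearing mice served as controls (C) for compound-treated mice (T). Reported figure is T divided by C.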

[1] = endpoint: mean survival time, dose: 12.5 mg/kg/injection, schedule: Q04DX003 (ip), vehicle: saline with Tween-80
[2] = endpoint: mean survival time, dose: 100.0 mg/kg/injection, schedule: Q01DX001 (ip), vehicle: saline with Tween-80
[3] = endpoint: mean survival time, dose: 200.0 mg/kg/injection, schedule: Q01DX001 (ip), vehicle: saline with Tween-80
[4] = endpoint: mean survival time, dose: 400.0 mg/kg/injection, schedule: Q01DX001 (ip), vehicle: saline with Tween-80
[5] = endpoint: mean survival time, dose: 100.0 mg/kg/injection, schedule: Q04DX003 (ip), vehicle: saline
[6] = endpoint: mean survival time, dose: 200.0 mg/kg/injection, schedule: Q04DX003 (ip), vehicle: saline
[7] = endpoint: mean survival time, dose: 400.0 mg/kg/injection, schedule: Q04DX003 (ip), vehicle: saline
[8] = endpoint: mean survival time, dose: 25.0 mg/kg/injection, schedule: Q04DX003 (ip), vehicle: saline with Tween-80
[9] = endpoint: mean survival time, dose: 100.0 mg/kg/injection, schedule: Q04DX003 (ip), vehicle: saline with Tween-80
[10] = endpoint: mean survival time, dose: 200.0 mg/kg/injection, schedule: Q04DX003 (ip), vehicle: saline with Tween-80
[11] = endpoint: mean survival time, dose: 400.0 mg/kg/injection, schedule: Q04DX003 (ip), vehicle: saline with Tween-80
[12] = endpoint: mean survival time, dose: 50.0 mg/kg/injection, schedule: Q01DX009 (ip), vehicle: saline
[13] = endpoint: mean survival time, dose: 100.0 mg/kg/injection, schedule: Q01DX009 (ip), vehicle: saline
[14] = endpoint: mean survival time, dose: 100.0 mg/kg/injection, schedule: Q04DX002 (ip), vehicle: saline with Tween-80
[15] = endpoint: mean survival time, dose: 200.0 mg/kg/injection, schedule: Q04DX002 (ip), vehicle: saline with Tween-80
[16] = endpoint: mean survival time, dose: 400.0 mg/kg/injection, schedule: Q04DX002 (ip), vehicle: saline with Tween-80
[17] = endpoint: mean survival time, dose: 100.0 mg/kg/injection, schedule: Q01DX009 (ip), vehicle: saline with Tween-80
[18] = endpoint: mean survival time, dose: 200.0 mg/kg/injection, schedule: Q01DX009 (ip), vehicle: saline with Tween-80
[19] = endpoint: mean survival time, dose: 400.0 mg/kg/injection, schedule: Q01DX009 (ip), vehicle: saline with Tween-80

CC([NH-])CC(C)[NH-].[Br][Pt+2][Br] (stereo not drawn)
T/C (endpoint: mean survival time, dose: 3.12 mg/kg/injection, schedule: Q04DX003 (ip), vehicle: saline with Tween-80): 120 % of control and 124 % of control
T/C [1]: 150 % of control

C[N+](C)(Cc1ccccc1)c1ccccc1
T/C (endpoint: mean survival time, dose: 10.0 mg/kg/injection, schedule: Q01DX009 (ip), vehicle: saline): 109 % of control
T/C (endpoint: mean survival time, dose: 20.0 mg/kg/injection, schedule: Q01DX009 (ip), vehicle: saline): 94 % of control

O=P(OCCCOCc1ccccc1)(N(CCCl)CCCl)N1CC1 (stereo not drawn)
T/C (endpoint: mean survival time, dose: 25.0 mg/kg/injection, schedule: Q01DX001 (ip), vehicle: other): 104 % of control
T/C (endpoint: mean survival time, dose: 50.0 mg/kg/injection, schedule: Q01DX001 (ip), vehicle: other): 106 % of control
T/C (endpoint: mean survival time, dose: 100.0 mg/kg/injection, schedule: Q01DX001 (ip), vehicle: DMSO): 98 % of control
T/C (endpoint: mean survival time, dose: 100.0 mg/kg/injection, schedule: Q01DX001 (ip), vehicle: other): 118 % of control
T/C (endpoint: mean survival time, dose: 200.0 mg/kg/injection, schedule: Q01DX001 (ip), vehicle: DMSO): 103 % of control
T/C (endpoint: mean survival time, dose: 200.0 mg/kg/injection, schedule: Q01DX001 (ip), vehicle: other): 101 % of control
T/C (endpoint: mean survival time, dose: 400.0 mg/kg/injection, schedule: Q01DX001 (ip), vehicle: DMSO): 109 % of control
T/C (endpoint: mean survival time, dose: 400.0 mg/kg/injection, schedule: Q01DX001 (ip), vehicle: other): 87 % of control

C=CCCC(Cc1ccccc1)C1=NC(C)(C)CC(C)O1 (stereo not drawn)
T/C (endpoint: mean survival time, dose: 6.25 mg/kg/injection, schedule: Q01DX001 (ip), vehicle: saline): 102 % of control
T/C (endpoint: mean survival time, dose: 12.5 mg/kg/injection, schedule: Q01DX001 (ip), vehicle: saline): 96 % of control
T/C (endpoint: mean survival time, dose: 25.0 mg/kg/injection, schedule: Q01DX001 (ip), vehicle: saline): 97 % of control

Sc1ccc(Cl)cc1
T/C [2]: 98 % of control
T/C [3]: 98 % of control
T/C [4]: 102 % of control

CC(=O)Nc1nnn(C)n1
T/C [5]: 103 % of control
T/C [6]: 100 % of control
T/C [7]: 101 % of control

O=C1C(Cl)=C(NCC2CCC(CO)CC2)C(=O)c2ccccc21 (stereo not drawn)
T/C (endpoint: mean survival time, dose: 6.25 mg/kg/injection, schedule: Q04DX003 (ip), vehicle: saline with Tween-80): 98 % of control
T/C [1]: 97 % of control
T/C [8]: 95 % of control and 98 % of control

Cc1cc(C)c2c(C#N)cn(-c3ccccc3Cl)c2n1
T/C [5]: 101 % of control
T/C [6]: 101 % of control
T/C [7]: 97 % of control

O=S(=O)(Nc1c(O)ccc2ccccc12)c1ccccc1
T/C [9]: 97 % of control
T/C [10]: 97 % of control
T/C [11]: 92 % of control

Nc1nc(=O)n(CCCOc2ccccc2NC(=O)Nc2cccc(S(=O)(=O)F)c2)cc1-c1ccc(Cl)c(Cl)c1
T/C (endpoint: mean survival time, dose: 75.0 mg/kg/injection, schedule: Q01DX001 (ip), vehicle: saline with Tween-80): 95 % of control
T/C (endpoint: mean survival time, dose: 150.0 mg/kg/injection, schedule: Q01DX001 (ip), vehicle: saline with Tween-80): 95 % of control
T/C (endpoint: mean survival time, dose: 300.0 mg/kg/injection, schedule: Q01DX001 (ip), vehicle: saline with Tween-80): 101 % of control

CC(C)N1CCC1CO (stereo not drawn)
T/C (endpoint: mean survival time, dose: 25.0 mg/kg/injection, schedule: Q01DX009 (ip), vehicle: saline): 96 % of control
T/C [12]: 100 % of control
T/C [13]: 94 % of control

CC(C)=CC(O)CC(O)(C(F)(F)F)C(F)(F)F (stereo not drawn)
T/C (endpoint: mean survival time, dose: 100.0 mg/kg/injection, schedule: Q01DX001 (ip), vehicle: Klucel (hydroxypropylcellulose) (HPC)): 94 % of control
T/C [14]: 94 % of control
T/C (endpoint: mean survival time, dose: 200.0 mg/kg/injection, schedule: Q01DX001 (ip), vehicle: Klucel (hydroxypropylcellulose) (HPC)): 97 % of control
T/C [15]: 94 % of control
T/C (endpoint: mean survival time, dose: 400.0 mg/kg/injection, schedule: Q01DX001 (ip), vehicle: Klucel (hydroxypropylcellulose) (HPC)): 100 % of control
T/C [16]: 90 % of control

O=[N+]([O-])c1ccccc1O
T/C (endpoint: mean survival time, dose: 100.0 mg/kg/injection, schedule: Q04DX003 (ip), vehicle: Klucel (hydroxypropylcellulose) (HPC)): 97 % of control
T/C (endpoint: mean survival time, dose: 200.0 mg/kg/injection, schedule: Q04DX003 (ip), vehicle: Klucel (hydroxypropylcellulose) (HPC)): 97 % of control
T/C (endpoint: mean survival time, dose: 400.0 mg/kg/injection, schedule: Q04DX003 (ip), vehicle: Klucel (hydroxypropylcellulose) (HPC)): 96 % of control

O=C(CBr)c1cc(-c2ccccc2)nc2c(Cl)cc(Cl)cc12
T/C (endpoint: mean survival time, dose: 100.0 mg/kg/injection, schedule: Q01DX001 (ip), vehicle: saline): 100 % of control
T/C (endpoint: mean survival time, dose: 200.0 mg/kg/injection, schedule: Q01DX001 (ip), vehicle: saline): 103 % of control
T/C (endpoint: mean survival time, dose: 400.0 mg/kg/injection, schedule: Q01DX001 (ip), vehicle: saline): 97 % of control

O=C(CCl)Nc1cc(Cl)c(Cl)cc1Cl
T/C [17]: 97 % of control
T/C [18]: 94 % of control
T/C [19]: 102 % of control

NC(=O)c1cc(=O)[nH]o1
T/C [17]: 102 % of control
T/C [18]: 96 % of control
T/C [19]: 107 % of control

O=Cc1c[nH]c2ccc(Br)cc12
T/C [13]: 105 % of control
T/C (endpoint: mean survival time, dose: 200.0 mg/kg/injection, schedule: Q01DX009 (ip), vehicle: saline): 113 % of control
T/C (endpoint: mean survival time, dose: 400.0 mg/kg/injection, schedule: Q01DX009 (ip), vehicle: saline): 100 % of control

Clc1cccc(Cl)c1C(Nc1nncs1)Nc1nncs1
T/C (endpoint: median survival time, dose: 25.0 mg/kg/injection, schedule: Q01DX005 (ip), vehicle: saline with Tween-80): 113 % of control
T/C (endpoint: median survival time, dose: 144.0 mg/kg/injection, schedule: Q01DX005 (ip), vehicle: saline with Tween-80): 151 % of control
T/C (endpoint: median survival time, dose: 240.0 mg/kg/injection, schedule: Q01DX005 (ip), vehicle: saline with Tween-80): 171 % of control
T/C (endpoint: median survival time, dose: 400.0 mg/kg/injection, schedule: Q01DX005 (ip), vehicle: saline with Tween-80): 192 % of control and 223 % of control

c1ccc2nc3c(cc2c1)CCC3
T/C (endpoint: mean survival time, dose: 100.0 mg/kg/injection, schedule: Q04DX003 (ip), vehicle: saline + alcohol): 95 % of control
T/C (endpoint: mean survival time, dose: 200.0 mg/kg/injection, schedule: Q04DX003 (ip), vehicle: saline + alcohol): 95 % of control

Cc1cc(C)c(C(=O)c2no[n+]([O-])c2C(=O)c2c(C)cc(C)c(Br)c2C)c(C)c1Br
T/C [17]: 97 % of control
T/C [18]: 97 % of control
T/C [19]: 98 % of control

CC(C)N(CCCC#N)C(C)C
T/C [12]: 96 % of control
T/C [13]: 95 % of control
T/C [9]: 97 % of control
T/C [10]: 89 % of control

C=CCN(CC=C)P(=O)(N(CC=C)CC=C)N1CC1
T/C (endpoint: mean survival time, dose: 11.0 mg/kg/injection, schedule: Q01DX015 (ip), vehicle: saline): 151 % of control
T/C (endpoint: mean survival time, dose: 17.0 mg/kg/injection, schedule: Q01DX015 (ip), vehicle: saline): 114 % of control

Cc1ccc(C)n1-c1ccccc1
T/C (endpoint: mean survival time, dose: 100.0 mg/kg/injection, schedule: Q01DX009 (ip), vehicle: saline + alcohol): 107 % of control
T/C [9]: 103 % of control
T/C (endpoint: mean survival time, dose: 200.0 mg/kg/injection, schedule: Q01DX009 (ip), vehicle: saline + alcohol): 105 % of control
T/C [10]: 106 % of control
T/C (endpoint: mean survival time, dose: 400.0 mg/kg/injection, schedule: Q01DX009 (ip), vehicle: saline + alcohol): 100 % of control
T/C [11]: 95 % of control

CN(C)Cc1cc(C(C)(C)CC(C)(C)C)cc(CN(C)C)c1O
T/C [8]: 98 % of control
T/C (endpoint: mean survival time, dose: 50.0 mg/kg/injection, schedule: Q04DX003 (ip), vehicle: saline with Tween-80): 100 % of control
T/C [9]: 96 % of control and 97 % of control

[CH3][Tl]([CH3])[Br]
T/C [14]: 100 % of control
T/C [15]: 96 % of control
T/C [16]: 96 % of control

Nc1ccccc1CO
T/C [9]: 100 % of control
T/C [10]: 95 % of control
T/C [11]: 95 % of control

COc1ccc(NC(C)=O)c(O)c1OC
T/C [2]: 95 % of control
T/C [14]: 103 % of control
T/C [3]: 92 % of control
T/C [15]: 106 % of control
T/C [4]: 95 % of control
T/C [16]: 98 % of control
